Test [1] concerns Mus musculus. The test is described as follows: Antinociceptive activity in ICR mouse assessed as reduction in licking time at 31.6 mg/kg, po dosed 30 mins before formalin injection and by formalin test. The class given is functional. Further details: scale not given: the % may be the effect or the level left.
For test [2], the system named is Mus musculus. The test is described as follows: Antinociceptive activity in ICR mouse assessed as reduction in licking time during phase 1 (acute phase) at 3.16 to 31.6 mg/kg, po dosed 30 mins before formalin injection and by formalin test. The class given is functional, organism-based.
The subject of test [3] is Mus musculus. Description: Antinociceptive activity in ICR mouse assessed as reduction in licking time during phase 2 (tonic response phase) at 3.16 to 31.6 mg/kg, po dosed 30 mins before formalin injection and by formalin test. The class given is functional, organism-based.

Active and inactive are the calls of the source. The calls are words filed in the database; no cut-off is given here.

For the molecule `O=C(O)Cc1ccccc1Nc1c(Cl)cccc1Cl` [DICLOFENAC], the Activity in the test on Mus musculus [1] was 40.9%.

Turning to `C=C[C@@]1(C)[C@H]2OC(=O)C(=C)[C@H]([C@@H]2OC(=O)/C(C)=C\C)[C@H](OC(=O)C(C)C)[C@@H]1C(=C)C(=O)O`, the result in the test on Mus musculus [2] and with Mus musculus [3] was Active.

The record behind these values is ChEMBL document CHEMBL4411289, “Antinociceptive Potential of Zinnia grandiflora” (2019).
